From ChEMBL document CHEMBL5360653, “Marine Alkaloid Lepadins E and H Induce Ferroptosis for Cancer Chemotherapy” (J Med Chem, 2023)
Activity calls are given as the source filed them. The calls are words filed in the database; no cut-off is given here.

Tests used:
HeLa [1] = assay: Cytotoxicity against human HeLa cells incubated for 72 hrs by MTT assay; format: functional, cell-based
HeLa [2] = assay: Effect on lipid peroxidation in human HeLa cells incubated at 200 nM for 4 hrs by C11-BODIPY581/591 staining based flow cytometric analysis; format: functional, cell-based
HeLa [3] = assay: Cytotoxicity against human HeLa cells assessed as increase in cell viability at 200 nM for 4 hrs relative to control; format: functional

SMILES | IC50 (HeLa [1]) | Activity (HeLa [2]) | Activity (HeLa [3])
CCC/C=C/C=C/C(=O)OC | > 20 µM | – | –
CCCCC/C=C/C(=O)OC | > 20 µM | – | –
Clc1cccc(CNC2=Nc3ccccc3NC23CCNCC3)c1 | – | Active | 5%
CCCCCCCC(=O)O[C@@H]1C[C@H]2[C@@H](CCCC[C@H](O)CCC)CCC[C@H]2N[C@H]1C | 11.7 µM | – | –
CCC[C@@H](O)CCCC[C@H]1CCC[C@H]2N[C@@H](C)[C@H](O)C[C@@H]12 | > 20 µM | – | –
